The data set is described as follows: Enrichment (partitioning from water to air in segmented flow), enrichment factor. The following applies: calculated enrichment factor. It is filed as physicochemical. The text has this: That is, each enrichment factor is a direct measure of the detection capabilities of the method and apparatus with respect to a specific volatile compound compound.
Both the detection limit in air and quantitation limit in water will vary depending on the sensitivity of the analytical equipment used. Thus, at any given testing site the sensitivity of the particular gas chromatograph used will determine detection and quantitation limits.
Without benefit of known enrichment factor for each compound compound present, extrapolation of the quantitation limit (LOQ) for each compound was accomplished by multiplying the signal-to-noise ratio of the test instrument by ten. These quantitation limits are a reflection of both the detector sensitivity (LOD) and what can be referred to as the enrichment factor or magnification of the concentration into the air phase. Thus, an enrichment factor was calculated for each compound as follows: [formula]
The enrichment factor depends on the volatility, water solubility, and diffusion coefficient of the particular compound.
Take `ClCCCl` [1,2-DICHLOROETHANE]: the “EF (air/water)” value is reported as 6.8.

With `Cl/C=C/Cl` [t-1,2-DICHLOROETHYLENE], the “EF (air/water)” value was 16.

As to `CC(Cl)CCl` (stereo not drawn) [1,2-DICHLOROPROPANE], the “EF (air/water)” value is on record as 7.7.

`Cl/C=C/CCl` [t-1,3-DICHLOROPROPENE]: the “EF (air/water)” value is 7.2.

For the molecule `Cl/C=C\CCl` [c-1,3 DICHLOROPROPENE], the “EF (air/water)” value is on record as 3.6.

Take `ClC(Cl)C(Cl)Cl` [1,1,2,2-TETRACHLOROETHANE]: the “EF (air/water)” value is recorded as 2.0.

As for `ClC(Br)Br` [CHLORODIBROMOMETHANE], the “EF (air/water)” value is given as 3.7.

With `ClC=C(Cl)Cl` [TRICHLOROETHYLENE], the “EF (air/water)” value is on record as 9.9.

On to `Clc1ccccc1` [CHLOROBENZENE], for which the “EF (air/water)” value is 4.0.

Turning to `ClC(Cl)=C(Cl)Cl` [PERCHLOROETHYLENE], the “EF (air/water)” value was 4.8.

As for `ClCC(Cl)Cl` [1,1,2-TRICHLOROETHANE], the “EF (air/water)” value is 3.9.

With `ClCCl` [METHYLENE CHLORIDE], the “EF (air/water)” value was 8.2.

As for `BrC(Br)Br` [BROMOFORM], the “EF (air/water)” value was 2.0.

Take `Clc1ccccc1Cl` [1,2-DICHLOROBENZENE]: the “EF (air/water)” value is listed as 1.7.

Turning to `ClC(Cl)Cl` [CHLOROFORM], the “EF (air/water)” value is 6.6.

For `CC(Cl)Cl` [1,1-DICHLOROETHANE], the “EF (air/water)” value is 6.7.

On to `C=C(Cl)Cl` [[…]], for which the “EF (air/water)” value is 12.

Turning to `ClC(Cl)(Cl)Cl` [CARBON TETRACHLORIDE], the “EF (air/water)” value is 7.7.

Turning to `CC(Cl)(Cl)Cl` [1,1,-TRICHLOROETHANE], the “EF (air/water)” value is on record as 6.8.

On to `CBr` [METHYL BROMIDE], for which the “EF (air/water)” value is 76.

For `ClC(Cl)Br` [BROMODICHLOROMETHANE], the “EF (air/water)” value is 7.7.

The values are drawn from US5235843A, “Method and apparatus for analyzing volatile chemical components in a liquid” (The Dow Chemical Company, priority 1991, dated 1993).
